According to EP0658547B1, “N-pyrazolyl carbamate derivative, agricultural/horticultural fungicide containing the same as active ingredient and production intermediate thereof” (MITSUBISHI CHEMICAL CORPORATION, priority 1993, dated 1995):

Assays:
Erysiphe graminis = assay: Preventive activity on wheat powdery mildew (foliar application, spray inoculation); assay type: in vivo; conditions: 200 ppm active ingredient, wettable powder, foliar application on wheat plants (var. Norin No. 61), 7 to 10 days after inoculation
Description: Test Example 1 Preventive activity on wheat powdery mildow
Wettable powders prepared according to the same manner as that described in Formulation Example 1 were diluted with water to the predetermined concentration and then applied by foliar application on wheat plants (var. Norin No. 61) at the 1 to 2 leaf stage grown in pots of 6 cm in diameter at a ratio of 10 ml per one pot. After the chemical solution was air-dried, a spore suspension obtained from the leaf of wheat infected with Erysiphe graminis was spray-inoculated. After inoculation, the seedling of wheat was allowed to stand at room temperature for 7 to 10 days.
For evaluation, the diseased area ratio of each leaf was measured and the preventive value was calculated from the following equation: The preventive value (%) = (average diseased area ratio in untreated plot) (- (average diseased area ratio in treated plot))/((average diseased area ratio in untreated plot))x 100 [formula]
The test compound No. cited in the Table 2 corresponds to the compound No. of Table 1.

Puccinia recondita = assay: Preventive activity on wheat brown rust (foliar application, spray inoculation); assay type: in vivo; conditions: 200 ppm active ingredient, wettable powder, foliar application on wheat plants (var. Norin No. 61), moist chamber 22°C 15 hours, then 7 days
Description: Test Example 2 Preventive activity on wheat brown Wettable powders prepared according to the same manner as that described in Formulation Example 1 were diluted with water to the predetermined concentration and then applied by foliar application on wheat plants (var. Norin No. 61) at the 1 to 2 leaf stage grown in pots of 6 cm in diameter at a ratio of 10 ml per one pot. After the chemical solution was air-dried, a spore suspension obtained by pulverizing the leaf of wheat infected with Puccinia recondita was spray-inoculated. After inoculation, the wheat seedling was maintained in a moist chamber at 22°C for 15 hours and was allowed to stand on a water tank in a green house for 7 days. For evaluation, the diseased area ratio of each leaf was measured and the preventive value was calculated from the following equation: The preventive value (%) = (average diseased area ratio in untreated plot) (- (average diseased area ratio in treated plot))/((average diseased area ratio in untreated plot))x 100 [formula]

Compound	Preventive value 1 (%) (Erysiphe graminis)	Preventive value 2 (%) (Puccinia recondita)
COC(=O)Nc1c(OCc2cc(C)ccc2C)c(C)nn1C [compound No. 48, methyl N-{1,3-dimethyl-4-(2,5-dimethylbenzyloxy)pyrazole-5-yl} carbamate]	93%	86%
C#CCN(C(=O)OC)c1c(OCc2cc(C)ccc2C)c(C)nn1C [compound No. 50, methyl N-{1,3-dimethyl-4-(2,5-dimethylbenzyloxy)pyrazole-5-yl}-N-propargyl-carbamate]	100%	100%
C#CCN(C(=O)OC)c1c(CON=C(C)c2ccc(C(F)(F)F)cc2)c(C)nn1C [compound No. 169, methyl N-[1,3-dimethyl-4-{(α-methyl-4-trifluoromethyl-benzylidene)aminooxymethylpyrazole-5-yl}]-N-propargyl-carbamate]	100%	100%
